US20260284009A1, “COMPOUNDS FOR NOS-RELATED CANCERS AND METHODS OF USE” (YISSUM RESEARCH DEVELOPMENT COMPANY OF THE HEBREW …, priority 2023, published 2026)

Columns and labels:
SH-SY5Y cells [1] = assay: Western blots of 3-Ntyr, mTOR pathway components and Syp in SH-SY5Y cell lysate; type: cell-based, human; settings: western blot normalized for β-actin, 100 μM 7-NI or 20 nM siRNA
Experimental: In FIGS. 4A-4D, for quantitative analysis data, all individual data series are presented as biological replicates (n=4) for all groups. Data were normalized for β-actin and are presented as mean±SEM. Statistical significance was determined using a One-way ANOVA followed by Fisher's LSD multiple comparison post hoc test. *P<0.05 and **P<0.01.
FIG. 4A: Representative western blots of 3-Ntyr prepared from cell lysate of SH-SY5Y cells following administration of the control (“SH-SY5Y”—Series 1), 100 μM 7-NI (“SH-SY5Y +7-NI”—Series 2), or 20 nM siRNA (SEQ ID NO: 4) (“SH-SY5Y+si-nNOS”—Series 3).
FIG. 4B: Quantitative analysis of 3-Ntyr levels for the experiments of FIG. 4A.
FIG. 4C: Representative western blots of mTOR, p-mTOR, TSC-2, AKT, pAKT, RPS6, pRPS6, and Syp prepared from the cell lysate of SH-SY5Y cells following administration of the control (“SH-SY5Y”—Series 1), 100 μM 7-NI (“SH-SY5Y+7-NI”—Series 2), or 20 nM siRNA (SEQ ID NO: 4) (“SH-SY5Y+si-nNOS”—Series 3).
FIG. 4D: Quantitative analysis of mTOR, p-mTOR, TSC-2, AKT, pAKT, RPS6, pRPS6, and Syp levels for the experiments of FIG. 4C.

SH-SY5Y-xenografted mice = assay: Tumor volume in SH-SY5Y-xenografted mice; type: in vivo; settings: 80 mg/kg 7-NI, after 1 month, vs control
Experimental: Data are presented as mean±SEM. Statistical significance was determined using a One-way ANOVA followed by Fisher's LSD multiple comparison post hoc test. **P<0.01.

SH-SY5Y cells [2] = assay: Xenograft neuroblastoma model, SH-SY5Y cells in NSG mice; type: in vivo; settings: NSG male mice, 80 mg/kg 7-NI intraperitoneally three times per week, one month, vs control
Experimental: A xenograft neuroblastoma model was generated by injecting 4.0×10^6 SH-SY5Y cells (in a 50:50 mixture of PBS and matrigel basement membrane matrix) into the subcutaneous tissue in the flank of NOD SCID Gamma (NSG) male mice. Mice were 6-8 weeks old at time of injections. The mice were examined for 1 month.
Two treatment groups of mice were used (n=8), wherein one group was administered control, and the second group was administered 80 mg/kg of 7-NI administered intraperitoneally three times per week. Treatment started after five days from the injection with SH-SY5Y cells. After one month, all mice were euthanized, and tumors were harvested for ex vivo analysis and histology. Tumor volume was measured using calipers and was calculated as (length^2*width)/2

U87-MG cells [3] = assay: Western blot of U87-MG cells (3-Ntyr, CD70, iNOS, nNOS); type: cell-based, human; settings: vs control and vehicle
Experimental: Human glioblastoma U87-MG cells were obtained from the American Type Culture Collection (ATCC) and maintained in Dulbecco's modified Eagle's Medium (DMEM) and Ham's F-12 (1:1) supplemented with 10% fetal bovine serum, 2 mM L-glutamine, and 100 U/ml penicillin-G/[…] streptomycin in the humidified atmosphere (37° C., 5% CO2). Cells were plated onto 25 cm^2 and 75 cm^2 at a density of […] respectively for Western blotting (WB) and 1×10^5 for immunofluorescence. The U87-MG cells were treated with 100 μM 7-nitroindazole (7-NI) for 24 hr. This concentration was confirmed in the dose-response experiment (FIG. 7) using an MTT viability assay.
Cells were lysed in ice-cold RIPA buffer containing 50 mM Tris-HCl, 1% Nonidet P-40, 0.25% sodium deoxycholate, 150 mM NaCl, protease-, and phosphatase inhibitor cocktails, pH 7.4. After sonication, the lysates were centrifuged at 17,000 g for 30 min at 4° C., and the supernatant was collected. The protein concentrations were determined with the BCA protein assay. Proteins were resolved by SDS-PAGE, transferred to a PVDF membrane, and probed with the following antibodies: anti-CD70 (rabbit, diluted 1:1000), and anti-3-Nitrotyrosine (rabbit, diluted 1:5000) from Abcam. All primary antibodies, except anti-3-Nitrotyrosine, were purchased from Cell Signaling Technology. The blots were then visualized using an enhanced chemiluminescence (ECL) system.

U87-MG cells [4] = assay: Xenograft glioblastoma model, U87-MG cells in NSG mice: survival experiment; type: in vivo; settings: 80 mg/kg or 120 mg/kg 7-NI intraperitoneally daily, vehicle-treated mice 35 days
Experimental: A xenograft glioblastoma model was generated by injecting 1.0×10^6 U87-MG cells (in PBS) into the subcutaneous tissue in the flank of NOD SCID Gamma (NSG) male (n=40) and female mice (n=5). Mice were 6-7 weeks old at time of injections. Mice were divided into groups and treatment was started when tumor volume reached 50 mm^3.
A survival experiment was performed in the mice, the treatment groups were saline (“Vehicle”) (n=10), 80 mg/kg 7-NI (n=10), and 120 mg/kg 7-NI (n=8). Treatments were administered intraperitoneally daily.

iNOS = iNOS expression level in U87-MG cells; type: cell-based, human; settings: compared to the control treatment, not statistically significant (FIG. 14)
nNOS = nNOS expression level in U87-MG cells; type: cell-based, human; settings: both the lower dose and higher dose, compared to the control treatment; not statistically significant (FIG. 15)
[5] = 7-NI, not statistically significantly

## O=[N+]([O-])c1cccc2cn[nH]c12 [7-NI, 7-nitroindazole]
SH-SY5Y cells [1]
  expression levels of 3-nitrotyrosine (3-Ntyr): significant decrease
  expression levels of AKT: significant decrease
  expression levels of RPS6: significant decrease
  expression levels of TSC-2: significant decrease
  expression levels of mTOR: significant decrease
  expression levels of p-mTOR: significant decrease
  expression levels of pAKT: significant decrease
  expression levels of pRPS6: significant decrease
  expression levels of synaptophysin (Syp): significant decrease
SH-SY5Y-xenografted mice
  tumor volume: significantly smaller
SH-SY5Y cells [2]
  average tumor size: significantly smaller
U87-MG cells [3]; 100 μM 7-NI, 24 hr
  3-Ntyr levels: significantly reduced
U87-MG cells [3]; 7-NI
  expression level of iNOS: unchanged
U87-MG cells [3]; [5]
  expression level of CD70: slightly decreased
  expression level of nNOS: slightly decreased
U87-MG cells [4]
  median survival: ~ 65 days

## CC(=N)NCCCC[C@H](N)C(=O)O [L-NIL, N^6-(1-iminoethyl)-L-lysine]
iNOS; higher dose
  expression level of iNOS: unchanged
iNOS; lower dose
  expression level of iNOS: slightly elevated
nNOS
  expression level of nNOS: reduced
